Data as given in paper PMC12079475, “Identification, validation, and characterization of approved and investigational drugs interfering with the SARS‐CoV‐2 endoribonuclease Nsp15” (Protein Science : A Publication of the Protein Society, 2025).
Where a name gives a salt, the structure may show the parent alone. Read-outs that look alike come from different tables or passages of the source.

Assays:
SARS‐CoV‐2 Nsp15 [1] = target: T1, SARS‐CoV‐2 Nsp15 (Severe acute respiratory syndrome coronavirus 2, UniProt P0DTD1); assay: biochemical; type: biochemical; details: for loss of the inhibition potency in L‐cysteine buffer: 1 mM L‐cysteine buffer compared with DTT buffer; for inhibition at 10 µM: read-out: Inhibition % +L-Cys 10 µM
SARS‐CoV‐2 Nsp15 [2] = target: T1, SARS‐CoV‐2 Nsp15; assay: biochemical
Nsp15 = Nsp15 (Severe acute respiratory syndrome coronavirus 2, UniProt P0DTD1)
[3] = test system: SARS‐CoV‐2 in Vero‐E6 cells; design: method as in Zaliani et al., 2022; details: ref Zaliani et al., 2022, read-out: EC50 cytopathic (CPE) assay; cited from earlier work
Vero‐E6 cells = details: tested concentration range up to 32 μM; ref Zaliani et al., 2022; cited from earlier work
[4] = 1 mM DTT buffer, confidence interval in brackets, read-out: IC50 + DTT (μM) (CI in μM)
[5] = DTT buffer (Table S1), read-out: IC50 +DTT
[6] = hit confirmation, 10 µM, DTT buffer
[7] = primary screen, 10 µM (Table S1)
[8] = primary screen, 10 μM compound, 1 mM DTT buffer, normalized to 50 μM Congo red (100%) and DMSO (0%)
[9] = hit confirmation, 10 µM, DTT buffer, read-out: HC inhibition % +DTT 10 µM
[10] = primary screen, 10 µM (Table S1), read-out: PS Inhibition % 10 µM
[11] = primary screen, 10 μM compound, 1 mM DTT buffer, normalized to 50 μM Congo red (100%) and DMSO (0%), read-out: PS inhibition % 10 μM (single point measurement)
[12] = 1 mM L-cysteine buffer, confidence interval in brackets, read-out: IC50 + L‐Cys (μM) (CI in μM)
[13] = L-cysteine buffer (Table S1), read-out: IC50 +L-Cys

Compound	IC50 (SARS‐CoV‐2 Nsp15 [2]; [4]) [µM]	IC50 (SARS‐CoV‐2 Nsp15 [2]; [5]) [µM]	inhibition at 10 µM (SARS‐CoV‐2 Nsp15 [1]; 10 µM, L-cysteine buffer) [%]	inhibition at 10 µM (SARS‐CoV‐2 Nsp15 [2]; [9]) [%]	inhibition at 10 µM (SARS‐CoV‐2 Nsp15 [2]; [10]) [%]	inhibition at 10 µM (SARS‐CoV‐2 Nsp15 [2]; [11]) [%]	IC50 (SARS‐CoV‐2 Nsp15 [1]; [12]) [µM]	IC50 (SARS‐CoV‐2 Nsp15 [1]; [13]) [µM]	further results
COc1cccc(C=NCCN=Cc2cccc(OC)c2[O-])c1[O-].[Cl-].[Mn+3] [EUK 134]	3.3	3.34	–	–	–	–	–	–	Inhibition % +L-Cys 10 µM (SARS‐CoV‐2 Nsp15 [1]; 10 µM, L-cysteine buffer): 16,41%; loss of the inhibition potency in L‐cysteine buffer (SARS‐CoV‐2 Nsp15 [1]): more than 50%; HC inhibition % +DTT 10 µM (SARS‐CoV‐2 Nsp15 [2]; [6]): 56,68%; PS Inhibition % 10 µM (SARS‐CoV‐2 Nsp15 [2]; [7]): 70,85%; PS inhibition % 10 μM (single point measurement) (SARS‐CoV‐2 Nsp15 [2]; [8]): 70.9%
CC(C)Nc1cccnc1N1CCN(C(=O)c2cc3cc(NS(C)(=O)=O)ccc3[nH]2)CC1 [Delavirdine (mesylate)]	2.3	2.29	27.2	77.3	80.7	80.7	–	–	loss of the inhibition potency in L‐cysteine buffer (SARS‐CoV‐2 Nsp15 [1]): more than 50%
CN[C@H](CC(C)C)C(=O)N[C@H]1C(=O)N[C@@H](CC(N)=O)C(=O)N[C@H]2C(=O)N[C@H]3C(=O)N[C@H](C(=O)N[C@H](C(=O)O)c4cc(O)cc(O)c4-c4cc3ccc4O)[C@H](O[C@H]3C[C@](C)(N)[C@@H](O)[C@H](C)O3)c3ccc(c(Cl)c3)Oc3cc2cc(c3O[C@@H]2O[C@H](CO)[C@@H](O)[C@H](O)[C@H]2O[C@H]2C[C@](C)(NCc3ccc(-c4ccc(Cl)cc4)cc3)[C@@H](O)[C@H](C)O2)Oc2ccc(cc2Cl)[C@H]1O.O=P(O)(O)O.O=P(O)(O)O [Oritavancin (diphosphate)]	2.5	2.53	–	–	–	–	1.2	1.24	Inhibition % +L-Cys 10 µM (SARS‐CoV‐2 Nsp15 [1]; 10 µM, L-cysteine buffer): 91,07%; ΔT m°C nDSF (Nsp15): 0 °C; HC inhibition % +DTT 10 µM (SARS‐CoV‐2 Nsp15 [2]; [6]): 92,52%; PS Inhibition % 10 µM (SARS‐CoV‐2 Nsp15 [2]; [7]): 86,71%; PS inhibition % 10 μM (single point measurement) (SARS‐CoV‐2 Nsp15 [2]; [8]): 86.7%
O=C1c2c(O)ccc(O)c2C(=O)c2c(NCCNCCO)ccc(NCCNCCO)c21 [Mitoxantrone hydrochloride]	–	–	–	–	–	–	–	–	IC50 (SARS‐CoV‐2 Nsp15 [1]; IC50 + L‐Cys (μM) (CI in μM)): 0.5 µM; IC50 (SARS‐CoV‐2 Nsp15 [1]; IC50 +L-Cys (µM)): 0.47 µM; IC50 (SARS‐CoV‐2 Nsp15 [2]; IC50 + DTT (μM) (CI in μM)): 1.5 µM; IC50 (SARS‐CoV‐2 Nsp15 [2]; IC50 +DTT (µM)): 1.47 µM
CCOC(=O)CCNc1cc(N2CCc3ccccc3CC2)nc(-c2ccccn2)n1 [GSK J4 HCl]	5.5	5.48	77.9	82.2	75.8	75.8	3.8	3.81	–
COc1cc2c(NC3CCN(C)CC3)nc(N3CCCN(C)CC3)nc2cc1OCCCN(C)C [UNC0224]	2.6	2.57	83.2	73.9	70.6	70.6	4	–	–
CCCCCCCCN=c1ccn(CCCCCCCCCCn2ccc(=NCCCCCCCC)cc2)cc1 [Octenidine dihydrochloride]	3.8	3.76	103	92.4	98.6	98.6	4.4	4.36	–
CC1(C)CCC2=C(O1)C(=O)c1ccccc1C2=O [alphaLapachone]	2.2	2.15	28.6	82.8	76	76	–	–	loss of the inhibition potency in L‐cysteine buffer (SARS‐CoV‐2 Nsp15 [1]): more than 50%
Cc1cc2nc3ccc(N(C)C)cc3[s+]c2cc1N [Tolonium chloride]	1.7	1.65	77.8	76.5	72	72	1.3	1.34	–
NCCNc1ccc(NCCN)c2c1C(=O)c1ccncc1C2=O [Pixantrone (dimaleate)]	5.2	5.23	72.8	77.5	82.3	82.3	4.4	4.37	–
CN(C)CCNc1nc2cc(O)ccc2c2c1C(=O)c1ccccc1-2.Cl.Cl [TAS‐103 (dihydrochloride), 6‐[2‐(dimethylamino)ethylamino]‐ 3‐hydroxy‐7H‐indeno[2,1‐C]quinolin‐7‐one dihydrochloride]	6.6	6.55	-33.9	63.6	63.4	63.4	–	–	loss of the inhibition potency in L‐cysteine buffer (SARS‐CoV‐2 Nsp15 [1]): more than 50%; ΔT m°C nDSF (Nsp15): 0.6 °C
O=C1C(Cl)=C(NCCN2CCOCC2)C(=O)c2ncccc21 [NSC‐663284]	0.5	0.48	–	–	–	–	–	–	Inhibition % +L-Cys 10 µM (SARS‐CoV‐2 Nsp15 [1]; 10 µM, L-cysteine buffer): 53,53%; HC inhibition % +DTT 10 µM (SARS‐CoV‐2 Nsp15 [2]; [6]): 82,57%; PS Inhibition % 10 µM (SARS‐CoV‐2 Nsp15 [2]; [7]): 85,51%; PS inhibition % 10 μM (single point measurement) (SARS‐CoV‐2 Nsp15 [2]; [8]): 85.5%
COc1cccc2c1C(=O)c1c(O)c3c(c(O)c1C2=O)C[C@@](O)(C(=O)CO)C[C@@H]3O[C@H]1C[C@H](N2CCO[C@H](OC)C2)[C@H](O)[C@H](C)O1 [Nemorubicin]	2.6	2.61	69	69.2	65.2	65.2	1.3	–	–
COc1cc2c(NC3CCN(C(C)C)CC3)nc(N3CCC(F)(F)CC3)nc2cc1OCCCN1CCCC1 [UNC0642]	6.3	6.27	80.2	77.5	56.9	56.9	3.3	3.27	EC50 [3]: 16700 nM; CC50 (Vero‐E6 cells): > 32000 nM
COc1cc2c(NC3CCN(C)CC3)nc(N3CCCN(C)CC3)nc2cc1OCCOCCN(C)C [UNC0321]	3.9	3.89	72.9	77.6	64	63.9	3.2	3.21	–
Cc1[nH]c2ccc(F)cc2c1-c1nc2c3cccnc3c3ncccc3c2[nH]1 [APTO‐253]	7.8	7.75	–	–	–	–	–	–	Inhibition % +L-Cys 10 µM (SARS‐CoV‐2 Nsp15 [1]; 10 µM, L-cysteine buffer): 48,13%; HC inhibition % +DTT 10 µM (SARS‐CoV‐2 Nsp15 [2]; [6]): 78,02%; PS Inhibition % 10 µM (SARS‐CoV‐2 Nsp15 [2]; [7]): 61,11%; PS inhibition % 10 μM (single point measurement) (SARS‐CoV‐2 Nsp15 [2]; [8]): 61.1%
BVT‐948	0.4	0.41	–	–	–	–	–	–	Inhibition % +L-Cys 10 µM (SARS‐CoV‐2 Nsp15 [1]; 10 µM, L-cysteine buffer): -3,98%; loss of the inhibition potency in L‐cysteine buffer (SARS‐CoV‐2 Nsp15 [1]): more than 50%; HC inhibition % +DTT 10 µM (SARS‐CoV‐2 Nsp15 [2]; [6]): 84,54%; PS Inhibition % 10 µM (SARS‐CoV‐2 Nsp15 [2]; [7]): 72,99%; PS inhibition % 10 μM (single point measurement) (SARS‐CoV‐2 Nsp15 [2]; [8]): 72.9%
Oc1ccc2ccccc2c1SSc1c(O)ccc2ccccc12 [IPA‐3]	–	–	–	–	–	–	–	–	Inhibition % +L-Cys 10 µM (SARS‐CoV‐2 Nsp15 [1]): 51,34%; HC inhibition % +DTT 10 µM (SARS‐CoV‐2 Nsp15 [2]): 89,23%; PS Inhibition % 10 µM (SARS‐CoV‐2 Nsp15 [2]): 86,58%; PS inhibition % 10 μM (single point measurement) (SARS‐CoV‐2 Nsp15 [2]): 86.6%; IC50 (SARS‐CoV‐2 Nsp15 [2]; read-out: IC50 + DTT (μM) (CI in μM)): 0.9 µM; IC50 (SARS‐CoV‐2 Nsp15 [2]; read-out: IC50 +DTT): 0.99 µM
C/C(=N\NC(=N)N)c1cc(NC(=O)CCCCCCCCC(=O)Nc2cc(/C(C)=N/NC(=N)N)cc(/C(C)=N/NC(=N)N)c2)cc(/C(C)=N/NC(=N)N)c1 [Semapimod]	0.6	0.61	–	–	–	–	1	1.01	Inhibition % +L-Cys 10 µM (SARS‐CoV‐2 Nsp15 [1]; 10 µM, L-cysteine buffer): 100,99%; HC inhibition % +DTT 10 µM (SARS‐CoV‐2 Nsp15 [2]; [6]): 99,81%; PS Inhibition % 10 µM (SARS‐CoV‐2 Nsp15 [2]; [7]): 106,91%; PS inhibition % 10 μM (single point measurement) (SARS‐CoV‐2 Nsp15 [2]; [8]): 106.9%
COc1cc2c(cc1OC)CN(CCc1ccc(NC(=O)c3cccc4c(=O)c5cccc(OC)c5[nH]c34)cc1)CC2 [Elacridar]	4.9	4.99	15.9	72.7	68.3	68.3	–	–	loss of the inhibition potency in L‐cysteine buffer (SARS‐CoV‐2 Nsp15 [1]): more than 50%
COc1cccc2c1C(=O)c1c(O)c3c(c(O)c1C2=O)C[C@@](O)(C(=O)CO)C[C@@H]3O[C@H]1C[C@H](N)[C@H](O)[C@H](C)O1 [Doxorubicin]	–	–	–	–	–	–	–	–	IC50 (SARS‐CoV‐2 Nsp15 [1]; IC50 + L‐Cys (μM) (CI in μM)): 2.3 µM; IC50 (SARS‐CoV‐2 Nsp15 [1]; IC50 +L-Cys (µM)): 2.26 µM; IC50 (SARS‐CoV‐2 Nsp15 [2]; IC50 + DTT (μM) (CI in μM)): 3.7 µM; IC50 (SARS‐CoV‐2 Nsp15 [2]; IC50 +DTT (µM)): 3.69 µM
COc1cc2c(NC3CCN(C(C)C)CC3)nc(C3CCCCC3)nc2cc1OCCCN1CCCC1 [UNC0638]	2.8	2.84	69.9	69.5	56.7	56.7	4.8	4.77	–
COc1cc2c(NC3CCN(CC4CCCCC4)CC3)nc(N3CCCN(C(C)C)CC3)nc2cc1OCCCN1CCCCC1 [UNC0631]	2.2	2.21	79.3	71.4	84.8	84.8	2.5	2.54	–
COc1cccc2c1C(=O)c1c(O)c3c(c(O)c1C2=O)C[C@@](O)(C(=O)CO)C[C@@H]3O[C@H]1C[C@H](N)[C@@H](O)[C@H](C)O1 [Epirubicin hydrochloride]	–	–	–	–	–	–	–	–	IC50 (SARS‐CoV‐2 Nsp15 [1]; IC50 + L‐Cys (μM) (CI in μM)): 1.5 µM; IC50 (SARS‐CoV‐2 Nsp15 [1]; IC50 +L-Cys (µM)): 1.46 µM; IC50 (SARS‐CoV‐2 Nsp15 [2]; IC50 + DTT (μM) (CI in μM)): 3.4 µM; IC50 (SARS‐CoV‐2 Nsp15 [2]; IC50 +DTT (µM)): 3.37 µM
